Measurements taken from patent publication US20080194482A1, “Selective Apac2 Receptor Peptide Agonists” (priority 2005, published 2008).
Square brackets hold non-standard residues; d marks the D form. Peptide text beside a SMILES is read from it. * marks the point of attachment. Orn = NCCC[C@H](N)C(=O)O; Hexanoyl = CCCCCC(=O)*; Aib = CC(C)(N)C(=O)O

What was measured:
human PAC1 = target: T1, human PAC1 (Homo sapiens, UniProt P41586); test: Filter binding assay, 125I-labeled PACAP-27 tracer, PAC1 membranes; settings: read-out: Human PAC1 Receptor Binding (IC50; nM)
T1 construct: expressed in transfected cells
T1 sequence (P41586 21-468): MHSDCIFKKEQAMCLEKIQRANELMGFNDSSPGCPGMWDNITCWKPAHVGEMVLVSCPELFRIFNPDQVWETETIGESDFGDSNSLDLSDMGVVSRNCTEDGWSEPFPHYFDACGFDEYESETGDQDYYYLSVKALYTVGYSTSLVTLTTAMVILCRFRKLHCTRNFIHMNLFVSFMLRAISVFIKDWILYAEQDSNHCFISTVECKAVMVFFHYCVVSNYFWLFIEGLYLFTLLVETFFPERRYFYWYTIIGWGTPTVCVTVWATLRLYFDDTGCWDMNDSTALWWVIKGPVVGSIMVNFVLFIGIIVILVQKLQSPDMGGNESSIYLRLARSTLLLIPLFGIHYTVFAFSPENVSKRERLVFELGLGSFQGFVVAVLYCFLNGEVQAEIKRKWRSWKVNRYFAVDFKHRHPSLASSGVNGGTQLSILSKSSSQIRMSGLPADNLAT

rat VPAC2 receptor = target: T2, rat VPAC2 receptor (Rattus norvegicus, UniProt P35000); test: DiscoveRx cAMP assay, in vitro potency at rat VPAC2 receptor; format: cell-based; settings: CHO-PO cells transiently transfected with rat VPAC2; cAMP generation; mean of two independent runs
T2 construct: expressed in transfected cells; host or cells: CHO-PO (transient, Lipofectamine)
T2 sequence (P35000 23-437): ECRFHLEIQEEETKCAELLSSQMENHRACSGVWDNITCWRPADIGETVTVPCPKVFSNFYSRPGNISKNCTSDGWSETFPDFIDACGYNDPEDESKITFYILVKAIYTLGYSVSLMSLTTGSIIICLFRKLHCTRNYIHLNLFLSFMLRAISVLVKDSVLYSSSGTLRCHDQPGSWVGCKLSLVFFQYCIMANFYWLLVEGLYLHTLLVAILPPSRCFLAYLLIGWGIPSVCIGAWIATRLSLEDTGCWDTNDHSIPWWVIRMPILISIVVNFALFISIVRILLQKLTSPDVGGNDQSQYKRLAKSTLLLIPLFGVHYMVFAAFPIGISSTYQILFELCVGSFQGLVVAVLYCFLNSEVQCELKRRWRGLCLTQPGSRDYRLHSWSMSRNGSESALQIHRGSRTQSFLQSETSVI
Procedure: (§1) DiscoveRx: CHO-PO cells are transiently transfected with rat VPAC1 or VPAC2 receptor DNA using commercially available transfection reagents (Lipofectamine from Invitrogen). The cells are seeded at a density of 10,000/well in a 96-well plate and are allowed to grow for 3 days in […] culture medium. At day 3, the assay is performed.
(§2) On the day of the experiment, the medium is removed. Also, the cells are washed twice. The cells are incubated in assay buffer plus IBMX for 15 minutes at room temperature. Afterwards, the stimuli are added and are dissolved in assay buffer. The stimuli are present for 30 minutes. Then, the assay buffer is gently removed. The cell lysis reagent of the DiscoveRx cAMP kit is added. Thereafter, the standard protocol for developing the cAMP signal as described by the manufacturer is used (DiscoveRx Inc., USA). EC50 values for cAMP generation are calculated from the raw signal or are based on absolute cAMP levels as determined by a standard curve performed on each plate.
(§3) Results for each agonist are the mean of two independent runs. Rat VPAC1 and VPAC2 results are only generated using the DiscoveRx assay.

human VPAC2 [1] = target: T3, human VPAC2 (Homo sapiens, UniProt P41587); test: Alpha screen cAMP assay, in vitro potency at human VPAC2 receptor; format: cell-based; settings: cAMP generation; single result from two analyses in a single run, some values average of more than one experiment
T3 construct: expressed in transfected cells
T3 sequence (P41587 24-438): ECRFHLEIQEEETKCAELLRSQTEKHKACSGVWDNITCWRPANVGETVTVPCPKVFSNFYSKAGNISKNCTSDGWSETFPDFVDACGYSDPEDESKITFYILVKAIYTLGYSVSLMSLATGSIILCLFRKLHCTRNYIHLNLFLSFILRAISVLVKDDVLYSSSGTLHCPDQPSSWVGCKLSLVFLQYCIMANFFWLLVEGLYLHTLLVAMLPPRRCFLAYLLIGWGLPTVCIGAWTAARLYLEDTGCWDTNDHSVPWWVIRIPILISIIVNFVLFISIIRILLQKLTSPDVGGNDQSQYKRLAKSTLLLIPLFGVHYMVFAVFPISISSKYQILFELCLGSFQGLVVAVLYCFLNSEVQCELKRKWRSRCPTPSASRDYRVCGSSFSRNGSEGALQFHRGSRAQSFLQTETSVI

rat VPAC1 receptor = target: T4, rat VPAC1 receptor (Rattus norvegicus, UniProt P30083); test: DiscoveRx cAMP assay, in vitro potency at rat VPAC1 receptor; format: cell-based; settings: CHO-PO cells transiently transfected with rat VPAC1; cAMP generation; mean of two independent runs
T4 construct: expressed in transfected cells; host or cells: CHO-PO (transient, Lipofectamine)
T4 sequence (P30083 31-459): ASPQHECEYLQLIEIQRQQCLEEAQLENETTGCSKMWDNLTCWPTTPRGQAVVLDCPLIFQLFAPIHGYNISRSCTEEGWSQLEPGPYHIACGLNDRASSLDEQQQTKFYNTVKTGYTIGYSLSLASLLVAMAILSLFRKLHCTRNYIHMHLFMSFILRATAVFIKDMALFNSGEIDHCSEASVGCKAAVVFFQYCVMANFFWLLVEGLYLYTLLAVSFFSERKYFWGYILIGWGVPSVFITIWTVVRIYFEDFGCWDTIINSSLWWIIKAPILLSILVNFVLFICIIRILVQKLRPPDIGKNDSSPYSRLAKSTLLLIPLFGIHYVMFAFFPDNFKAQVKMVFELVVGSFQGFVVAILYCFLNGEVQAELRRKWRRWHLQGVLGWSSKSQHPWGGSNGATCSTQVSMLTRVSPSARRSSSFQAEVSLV
Procedure: as §1, §2, §3

human VPAC1 = target: T5, human VPAC1 (Homo sapiens, UniProt P32241); test: Filter binding assay, 125I-labeled VIP tracer, VPAC1 membranes; settings: read-out: Human VPAC1 Receptor Binding (IC50; nM)
T5 construct: expressed in transfected cells
T5 sequence (P32241 31-457): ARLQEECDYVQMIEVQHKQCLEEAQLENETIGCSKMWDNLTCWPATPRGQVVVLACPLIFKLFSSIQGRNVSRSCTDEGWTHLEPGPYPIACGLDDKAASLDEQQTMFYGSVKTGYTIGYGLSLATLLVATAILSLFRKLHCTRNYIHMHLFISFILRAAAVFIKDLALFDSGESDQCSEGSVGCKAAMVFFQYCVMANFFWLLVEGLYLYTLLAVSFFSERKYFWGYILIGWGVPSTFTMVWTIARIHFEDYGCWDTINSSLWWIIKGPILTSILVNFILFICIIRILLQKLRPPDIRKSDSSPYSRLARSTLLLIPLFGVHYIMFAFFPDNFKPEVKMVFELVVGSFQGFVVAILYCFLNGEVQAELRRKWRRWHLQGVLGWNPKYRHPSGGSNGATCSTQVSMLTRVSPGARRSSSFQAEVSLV

[2] = Rat serum stability (activity remaining, CHO-VPAC2 DiscoveRx read-out); format: in vitro ADME
Method in brief: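 Peptides preincubated overnight in rat serum at 37 °C without aprotinin versus 4 °C with aprotinin, then tested as 11-point 5× dilutions in duplicate on CHO-VPAC2 cells, 30 min at RT. cAMP measured by DiscoveRx kit against standards; EC50 derived for each aliquot.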

human VPAC2 [3] = target: T3, human VPAC2; test: Filter binding assay, 125I-labeled VIP tracer, VPAC2 membranes; settings: read-out: Human VPAC2 Receptor Binding (IC50; nM)

In the case of CCCCCC(=O)N[C@@H](Cc1c[nH]cn1)C(=O)N[C@@H](CO)C(=O)N[C@@H](CC(=O)O)C(=O)N[C@@H](C)C(=O)N[C@H](C(=O)N[C@@H](Cc1ccccc1)C(=O)N[C@H](C(=O)N[C@@H](CC(=O)O)C(=O)N[C@@H](CCC(N)=O)C(=O)N[C@@H](Cc1ccc(OC)cc1)C(=O)N[C@H](C(=O)N[C@@H](CCCN)C(=O)N[C@@H](CC(C)C)C(=O)N[C@@H](CCCNC(=N)N)C(=O)NC(C)(C)C(=O)N[C@@H](CCC(N)=O)C(=O)N[C@@H](CC(C)C)C(=O)N[C@@H](C)C(=O)N[C@@H](C)C(=O)NC(C)(C)C(=O)N[C@@H](CCCN)C(=O)N[C@@H](Cc1ccc(O)cc1)C(=O)N[C@@H](CC(C)C)C(=O)N[C@@H](CCC(N)=O)C(=O)N[C@@H](CO)C(=O)N[C@H](C(=O)N[C@@H](CCCN)C(=O)N[C@@H](CCCN)C(=O)NCC(=O)NCC(=O)N1CCC[C@H]1C(=O)N[C@@H](CO)C(=O)N[C@@H](CO)C(=O)NCC(=O)N[C@@H](C)C(=O)N1CCC[C@H]1C(=O)N1CCC[C@H]1C(=O)N1CCC[C@H]1C(=O)N[C@@H](CO)C(=O)O)[C@@H](C)CC)[C@@H](C)O)[C@@H](C)O)C(C)C [Agonist P394] (Hexanoyl-HSDAVFTDQY(Me)T[Orn]LR[Aib]QLAA[Aib][Orn]YLQSI[Orn][Orn]GGPSSGAPPPS-OH; C-terminus assumed), the IC50 (human PAC1) is reported as greater than 25000 nM, the EC50 (rat VPAC2 receptor) is reported as 0.03 nM and the EC50 (human VPAC2 [1]) is reported as 0.11 nM. The EC50 (rat VPAC1 receptor) was 0.48 nM.

With CCCCCC(=O)N[C@@H](Cc1c[nH]cn1)C(=O)N[C@@H](CO)C(=O)N[C@@H](CC(=O)O)C(=O)N[C@@H](C)C(=O)N[C@H](C(=O)N[C@@H](Cc1ccccc1)C(=O)N[C@H](C(=O)N[C@@H](CC(=O)O)C(=O)N[C@@H](CC(N)=O)C(=O)N[C@@H](Cc1ccc(O)cc1)C(=O)N[C@H](C(=O)N[C@@H](CCCN)C(=O)N[C@@H](CC(C)C)C(=O)N[C@@H](CCCNC(=N)N)C(=O)NC(C)(C)C(=O)N[C@@H](CCC(N)=O)C(=O)N[C@H](C(=O)N[C@@H](C)C(=O)N[C@@H](C)C(=O)NC(C)(C)C(=O)N[C@@H](CCCCN)C(=O)N[C@@H](Cc1ccc(O)cc1)C(=O)N[C@@H](CO)C(=O)N[C@@H](CCC(N)=O)C(=O)N[C@@H](CO)C(=O)N[C@H](C(=O)N[C@@H](CCCN)C(=O)N[C@@H](CC(N)=O)C(=O)N[C@@H](CCCN)C(=O)NCC(=O)NCC(=O)N1CCC[C@H]1C(=O)N[C@@H](CO)C(=O)N[C@@H](CO)C(=O)NCC(=O)N[C@@H](C)C(=O)N1CCC[C@H]1C(=O)N1CCC[C@H]1C(=O)N1CCC[C@H]1C(=O)N[C@@H](CO)C(=O)O)[C@@H](C)CC)C(C)C)[C@@H](C)O)[C@@H](C)O)C(C)C [Agonist P384] (Hexanoyl-HSDAVFTDNYT[Orn]LR[Aib]QVAA[Aib]KYSQSI[Orn]N[Orn]GGPSSGAPPPS-OH; C-terminus assumed) the IC50 (human PAC1) was greater than 25000 nM, the IC50 (human VPAC1) was greater than 3000 nM and the “Rat Serum Stability (estimated purity in % after overnight incub.)” value [2] was 96.45%. The EC50 (rat VPAC1 receptor) was greater than 600 nM.

Work on CCCCCC(=O)N[C@@H](Cc1c[nH]cn1)C(=O)N[C@@H](CO)C(=O)N[C@@H](CC(=O)O)C(=O)N[C@@H](C)C(=O)N[C@H](C(=O)N[C@@H](Cc1ccccc1)C(=O)N[C@H](C(=O)N[C@@H](CC(=O)O)C(=O)N[C@@H](CC(N)=O)C(=O)N[C@@H](Cc1ccc(O)cc1)C(=O)N[C@H](C(=O)N[C@@H](CCCN)C(=O)N[C@@H](CC(C)C)C(=O)N[C@@H](CCCNC(=N)N)C(=O)NC(C)(C)C(=O)N[C@@H](CCC(N)=O)C(=O)N[C@H](C(=O)N[C@@H](CO)C(=O)N[C@@H](C)C(=O)NC(C)(C)C(=O)N[C@@H](CCCCN)C(=O)N[C@@H](Cc1ccc(O)cc1)C(=O)N[C@@H](CC(C)C)C(=O)N[C@@H](CCC(N)=O)C(=O)N[C@@H](CO)C(=O)N[C@H](C(=O)N[C@@H](CCCN)C(=O)N[C@@H](CC(N)=O)C(=O)N[C@@H](CCCN)C(=O)NCC(=O)NCC(=O)N1CCC[C@H]1C(=O)N[C@@H](CO)C(=O)N[C@@H](CO)C(=O)NCC(=O)N[C@@H](C)C(=O)N1CCC[C@H]1C(=O)N1CCC[C@H]1C(=O)N1CCC[C@H]1C(=O)N[C@@H](CO)C(=O)O)[C@@H](C)CC)C(C)C)[C@@H](C)O)[C@@H](C)O)C(C)C [Agonist P388] (Hexanoyl-HSDAVFTDNYT[Orn]LR[Aib]QVSA[Aib]KYLQSI[Orn]N[Orn]GGPSSGAPPPS-OH; C-terminus assumed) yielded an IC50 (human VPAC2 [3]) of no less than 100 nM, an IC50 (human PAC1) greater than 25000 nM and an IC50 (human VPAC1) greater than 3000 nM. For the same molecule, the EC50 (rat VPAC1 receptor) was greater than 2000 nM.
